{"source": "patent US11123368B2", "about": "“Immunosuppressive blood cells and methods of producing the same” (Universitatsklinikum Heidelberg, priority 2008, dated 2021)", "origin": "cited, not measured here", "test_system": "multiple sclerosis", "settings": "clinical trials"}
{"substance": "glatiramer acetate", "values": [{"measurement": "relapse rate of MS", "value": "significantly reduced"}, {"measurement": "progression of disability", "setting": "MS", "value": "slowed progression of disability"}]}
